Reference: US20230293629A1, “METHODS FOR ATTENUATING RELEASE OF INFLAMMATORY MEDIATORS AND PEPTIDES USEFUL THEREIN” (BIOMARCK PHARMACEUTICALS LTD., priority 2006, published 2023)
Where a SMILES comes first, the peptide text is derived from it. Where no end group is shown, it is not given here. [ ]: non-standard residue; d: D form. The star is where a group is joined. Myristoyl = CCCCCCCCCCCCCC(=O)*

Experiments:
HL-60 clone 15 cells = assay: PMA-stimulated EPO release from HL-60 clone 15 cells; assay type: cell-based, human; details: 50 μM test peptide, two hour incubation with 100 nM PMA; HL-60 clone 15 cells
Description: (§1) Three types of human leukocyte cell lines, specifically the promyelocytic cell line HL-60 clone 15, the monocytic cell line U937, and the lymphocyte natural killer cell line NK-92 were purchased from American Type Culture Collection (ATCC; Rockville, MD). HL-60 clone 15 cells (ATCC CRL-1964) were maintained in medium consisting of RPMI 1640 with L-glutamine supplemented with 10% heat-inactivated fetal bovine serum (Gibco; Invitrogen Co., Carlsbad, CA), 50 IU/ml penicillin, 50 μg/mL streptomycin, and 25 mM HEPES buffer, pH 7.8, at 37° C. in an atmosphere containing 5% CO2. Final differentiation to an eosinophil-like phenotype was initiated by culturing cells at 5×10^5 cells/ml in the above medium containing 0.5 mM butyric acid (Sigma-Aldrich Co.) for 5 days as previously described (Tiffany H L, Li F, Rosenberg H F. Hyperglycosylation of eosinophil ribonucleases in a promyelocytic leukemia cell line and in differentiated peripheral blood progenitor cells. J Leukoc Biol 1995; 58:49-54; Tiffany H L, Alkhatib G, Combadiere C, Berger E A, Murphy P M. CC chemokine receptors 1 and 3 are differentially regulated by IL-5 during maturation of eosinophilic HL-60 cells. J Immunol 1998; 160:1385-1392). U937 cells (ATCC CRL-1593.2) were grown at 37° C. in an atmosphere of 5% CO2 in complete medium consisting of RPMI 1640 with L-glutamine supplemented with 10% FBS, 50 IU/ml penicillin, and 50 μg/mL streptomycin. NK-92 cells (ATCC CRL-2407) were maintained in alpha-MEM medium (Sigma-Aldrich Co.) supplemented with 20% FBS, 100 U/ml of interleukin-2 (IL-2) (Chemicon International, Inc., Temecula, CA), 5×10^−5 M of 2-mercaptoethanol, 50 IU/mL penicillin, and 50 μg/ml streptomycin at 37° C. in an atmosphere containing 5% CO2. Cell morphology was judged by assessment of Wright-Giemsa-stained cells. Viability of cells harvested for experiments was assessed by trypan blue exclusion and populations of cells with viability >95% were used.
(§2) HL-60 clone 15, U937, and NK-92 cells were washed and resuspended at 2.5×10^6 cells/ml in phenol red-free RPMI-1640 (Cellgro; Mediatech, Inc.) for all degranulation assays. Aliquots of cells in 15 ml tubes were preincubated with indicated concentrations of MANS, RNS, or a test peptide for 10 min at 37° C. The cells then were stimulated with PMA for up to 2 hr. A control reference (PMA control reference) was established for each cell type using HL-60 clone 15, U937, and NK-92 cells, respectively, which were washed and resuspended at 2.5×10^6 cells/ml in phenol red-free RPMI-1640 and stimulated with PMA but in the absence of MANS, RNS, or a test peptide for the same time periods. The reaction was terminated by placing tubes on ice and centrifuging cells at 400 g for 5 min at 4° C.
(§3) For measurements of released MPO from neutrophils and released lysozyme from U937 cells, we were able to quantify secretion by using as standards human MPO and egg white […], respectively. For released EPO from HL-60 clone 15 cells and for released granzyme from NK-92 cells, no standards were available to use for quantification. […] To measure intracellular EPO in HL-60 clone 15 cells and intracellular granzyme in NK-92 cells, appropriate aliquots of 0.1% triton X-100-lysed cells were taken for quantification of intracellular granule proteins as described below. All treatments were expressed as percentage of control to minimize variability between cultures.
EPO activity released by HL-60 clone 15 cells was assayed using TMB according to a previously established technique (Lacy P, Mahmudi-Azer S, Bablitz B, Hagen S C, Velazquez J R, Man S F, Moqbel R. Rapid mobilization of intracellularly stored RANTES in response to interferon-gamma in human eosinophils. Blood 1999; 94:23-32). Thus, 100 μL of TMB substrate solution was added to 50 μL=microliters) of sample in a 96-well microplate and incubated at room temperature for 15 min (min=minutes). […]

[1] = Qualitative solubility of peptides in 0.5 N saline, pH 6.5
human neutrophils = assay: PMA-stimulated MPO release from isolated human neutrophils (TMB assay); assay type: cell-based; details: 100 μM test peptide, two hour incubation with 100 nM PMA; human neutrophils
From the text: Human neutrophil isolation—These studies were approved by the human studies Institutional Review Board (IRB). Human neutrophils were isolated as previously described (see Takashi S, OkuboY, Horie S. Contribution of CD54 to human eosinophil and neutrophil superoxide production. J Appl Physiol 2001; 91:613-622) with slight modifications. Briefly, heparinized venous blood was obtained from normal healthy volunteers, diluted with RPMI-1640 (Cellgro; Mediatech, Inc., Herndon, VA) at a ratio of 1:1, layered onto a Histopaque (density, 1.077 g/ml; Sigma-Aldrich Co., St. Louis, MO) and centrifuged at 400 g for 20 min at 4° C. The supernatant and mononuclear cells at the interface were carefully removed, and erythrocytes in the sediment were lysed in chilled distilled water. Isolated granulocytes were washed twice with Hanks' balanced salts solution (HBSS) and resuspended in HBSS on ice.
Measurement of released neutrophil MPO activity—For measurement of MPO release, purified human neutrophils suspended in HBSS were aliquoted at 4×10^6 cells/ml in 15 ml tubes and preincubated with either 50 or 100 μM of MANS, RNS, or one of the peptides of invention for 10 min at 37° C. The cells then were stimulated with 100 nM phorbol 12-myristate 13-acetate (PMA) for up to 3 hrs. A control reference (PMA control reference) was established using purified human neutrophils suspended in HBSS aliquoted at 4×10^6 cells/ml in 15 mL tubes and stimulated with 100 nM phorbol 12-myristate 13-acetate (PMA) in the absence of a test peptide for the same time periods. The reaction was terminated by placing the tubes on ice and centrifugation at 400 g for 5 min at 4° C.
MPO activity in the cell supernatant was assayed using tetramethylbenzidine (TMB) based on a previously established technique (Abdel-Latif D, Steward M, Macdonald D L, Francis G A., Dinauer M C, Lacy P. Rac2 is critical for neutrophil primary granule exocytosis. Blood 2004; 104:832-839). Briefly, 100 μL of TMB substrate solution was added to 50 μL of cell supernatants or standard human MPO (EMD Biosciences, Inc., San Diego, CA) in a 96-well microplate followed by incubation at room temperature for 15 min. The reaction was terminated by addition of 50 μL of 1M […] and absorbance was read at 450 nm in a spectrophotometric microplate reader (VERSA max, Molecular Devices, Sunnyvale, CA).
The data presented in the table below represents 100 μM concentration of test peptides and a two hour incubation with 100 nM PMA.

U937 cells = assay: PMA-stimulated lysozyme secretion by U937 cells; assay type: cell-based, human; details: 50 μM test peptide, two hour incubation with 100 nM PMA; U937 cells
Description: as §1, §2, §3
Lysozyme secreted by U937 cells was measured using a spectrophotometric assay as described previously (Balboa M A, Saez Y, Balsinde J. Calcium-independent phospholipase A2 is required for lysozyme secretion in U937 promonocytes. J Immunol 2003; 170:5276-5280) with slight modification. Thus, 100 μL of sample was mixed with 100 μL of a Micrococcus lysodeikticus (Sigma-Aldrich Co.) suspension (0.3 mg/ml in 0.1 M sodium phosphate buffer, pH 7.0) in a 96-well microplate. The decrease in absorbance at 450 nm was measured at room temperature. […]

[2] = system: MARCKS phosphorylation in NHBE cells; assay: MARCKS phosphorylation in NHBE cells, radiolabeled immunoprecipitation assay; assay type: cell-based, human; details: 500 nM calphostin C + 100 nM PMA
Description: Radiolabeled Immunoprecipitation Assay—When labeling with [^32P]phosphate, cells were preincubated for 2 h in phosphate-free Dulbecco's modified Eagle's medium containing 0.2% bovine serum albumin and then labeled with 0.1 mCi/ml [^32P]orthophosphate (9000 Ci/mmol, PerkinElmer Life Sciences) for 2 h. For labeling with [^3H]myristic acid or 3H-amino acids, cells were incubated overnight in medium containing 50 μCi/ml [^3H]myristic acid (49 Ci/mmol, PerkinElmer Life Sciences) or 0.2 mCi/ml [^3H]leucine (159 Ci/mmol, PerkinElmer Life Sciences) plus 0.4 mCi/ml [^3H]proline (100 Ci/mmol, PerkinElmer Life Sciences). Following labeling, cells were exposed to stimulatory reagents for 5 min. When an inhibitor was used, cells were preincubated with the inhibitor for 15 min prior to stimulation. At the end of the treatments, cells were lysed in a buffer containing 50 mM Tris-HCl (pH 7.5), 150 mM NaCl, 1 mM EDTA, 10% glycerol, 1% Nonidet P-40, 1 mM phenylmethylsulfonyl fluoride, 1 mM benzamidine, 10 μg/ml pepstatin A, and 10 μg/ml leupeptin. Trichloroacetic acid precipitation and scintillation counting may determine the radiolabeling efficiency in each culture. Immunoprecipitation of MARCKS protein was carried out according to the method of Spizz and Blackshear using cell lysates containing equal counts/min. Spizz et al., J. Biol. Chem. 271, 553-562 (1996). Precipitated proteins were resolved by 8% SDS-polyacrylamide gel electrophoresis and visualized by autoradiography. Anti-human MARCKS antibody (2F12) and nonimmune control antibody (6F6) were used in this assay.
To assess MARCKS or MARCKS-associated protein complexes in different subcellular fractions, radiolabeled and treated cells were scraped into a homogenization buffer (50 mM Tris-HCl (pH 7.5), 10 mM NaCl, 1 mM EDTA, 1 mM phenylmethylsulfonyl fluoride, 1 mM benzamidine, 10 μg/ml pepstatin A, 10 μg/ml leupeptin) and then disrupted by nitrogen cavitation (800 pounds/square inch for 20 min at 4° C.). Cell lysates were centrifuged at 600×g for 10 min at 4° C. to remove nuclei and unbroken cells. Post-nuclear supernatants were separated into membrane and cytosol fractions by ultracentrifugation at 400,000×g for 30 min at 4° C. The membrane pellet was solubilized in the lysis buffer by sonication. Immunoprecipitation was then carried out as described above.

Molecule: Ac-GAQFSKTAAKGE-NH2 [Ac-GAQFSKTAAKGE-NH2, GAQFSKTAAKGE]
- % Inhibition EPO (HL-60 clone 15 cells): 24.7%
- solubility [1]: > 60 mg/mL
- % Inhibition MPO (human neutrophils): 26.5%
- % Inhibition Lysozyme (U937 cells): 38.6%

Molecule: CCCCCCCCCCCCCC(=O)NCC(=O)N[C@@H](C)C(=O)N[C@@H](CCC(N)=O)C(=O)N[C@@H](Cc1ccccc1)C(=O)N[C@@H](CO)C(=O)N[C@@H](CCCCN)C(=O)N[C@H](C(=O)N[C@@H](C)C(=O)N[C@@H](C)C(=O)N[C@@H](CCCCN)C(=O)NCC(=O)N[C@@H](CCC(=O)O)C(=O)O)[C@@H](C)O [MA-GAQFSKTAAKGE, GAQFSKTAAKGE] (Myristoyl-GAQFSKTAAKGE-OH; C-terminus assumed)
- % Inhibition EPO (HL-60 clone 15 cells): 25.2%
- solubility [1]: > 2 mg/mL
- % Inhibition MPO (human neutrophils): 43.2%
- % Inhibition Lysozyme (U937 cells): 85.2%

Molecule: calphostin C
- effect on PMA-induced MARCKS phosphorylation [2]: attenuated

Molecule: CC(=O)NCC(=O)N[C@H](C)C(=O)N[C@H](CCC(N)=O)C(=O)N[C@H](Cc1ccccc1)C(=O)N[C@H](CO)C(=O)N[C@H](CCCCN)C(=O)N[C@@H](C(=O)N[C@H](C)C(=O)N[C@H](C)C(=O)N[C@H](CCCCN)C(=O)O)[C@H](C)O [Ac-GAQFSKTAAK (all d), GAQFSKTAAK (all d)] (Ac-G[dA][dQ][dF][dS][dK][dT][dA][dA][dK]-OH; C-terminus assumed)
- % Inhibition EPO (HL-60 clone 15 cells): 26.9%
- solubility [1]: > 100 mg/mL
- % Inhibition MPO (human neutrophils): 40.0%
- % Inhibition Lysozyme (U937 cells): 8.9%

Molecule: CCCCCCCCCCCCCC(=O)NCC(=O)N[C@@H](C)C(=O)N[C@@H](CCC(N)=O)C(=O)N[C@@H](Cc1ccccc1)C(=O)N[C@@H](CO)C(=O)N[C@@H](CCCCN)C(=O)N[C@H](C(=O)N[C@@H](CCCCN)C(=O)N[C@@H](C)C(=O)N[C@@H](CCCCN)C(=O)NCC(=O)N[C@@H](CCC(=O)O)C(=O)O)[C@@H](C)O [MA-GAQFSKTKAKGE, GAQFSKTKAKGE] (Myristoyl-GAQFSKTKAKGE-OH; C-terminus assumed)
- solubility [1]: > 3 mg/mL
- % Inhibition MPO (human neutrophils): 65.2%

Molecule: H-GAQFSKTAAKGE [peptide 79, GAQFSKTAAKGE]
- % Inhibition MPO (human neutrophils): 27.9%
